In US8809331B2 (Genentech, Inc., priority 2011, dated 2014) one finds Ki data, which are given here for 24 compounds.

Broadly, the Ki is the equilibrium dissociation constant of an inhibitor or competing ligand from its target.

The target of this test is T1, LRRK2 (Homo sapiens, UniProt Q5S007, G2019S).
T1 construct: purchased Invitrogen PV4882
T1 sequence (Q5S007 whole entry G2019S): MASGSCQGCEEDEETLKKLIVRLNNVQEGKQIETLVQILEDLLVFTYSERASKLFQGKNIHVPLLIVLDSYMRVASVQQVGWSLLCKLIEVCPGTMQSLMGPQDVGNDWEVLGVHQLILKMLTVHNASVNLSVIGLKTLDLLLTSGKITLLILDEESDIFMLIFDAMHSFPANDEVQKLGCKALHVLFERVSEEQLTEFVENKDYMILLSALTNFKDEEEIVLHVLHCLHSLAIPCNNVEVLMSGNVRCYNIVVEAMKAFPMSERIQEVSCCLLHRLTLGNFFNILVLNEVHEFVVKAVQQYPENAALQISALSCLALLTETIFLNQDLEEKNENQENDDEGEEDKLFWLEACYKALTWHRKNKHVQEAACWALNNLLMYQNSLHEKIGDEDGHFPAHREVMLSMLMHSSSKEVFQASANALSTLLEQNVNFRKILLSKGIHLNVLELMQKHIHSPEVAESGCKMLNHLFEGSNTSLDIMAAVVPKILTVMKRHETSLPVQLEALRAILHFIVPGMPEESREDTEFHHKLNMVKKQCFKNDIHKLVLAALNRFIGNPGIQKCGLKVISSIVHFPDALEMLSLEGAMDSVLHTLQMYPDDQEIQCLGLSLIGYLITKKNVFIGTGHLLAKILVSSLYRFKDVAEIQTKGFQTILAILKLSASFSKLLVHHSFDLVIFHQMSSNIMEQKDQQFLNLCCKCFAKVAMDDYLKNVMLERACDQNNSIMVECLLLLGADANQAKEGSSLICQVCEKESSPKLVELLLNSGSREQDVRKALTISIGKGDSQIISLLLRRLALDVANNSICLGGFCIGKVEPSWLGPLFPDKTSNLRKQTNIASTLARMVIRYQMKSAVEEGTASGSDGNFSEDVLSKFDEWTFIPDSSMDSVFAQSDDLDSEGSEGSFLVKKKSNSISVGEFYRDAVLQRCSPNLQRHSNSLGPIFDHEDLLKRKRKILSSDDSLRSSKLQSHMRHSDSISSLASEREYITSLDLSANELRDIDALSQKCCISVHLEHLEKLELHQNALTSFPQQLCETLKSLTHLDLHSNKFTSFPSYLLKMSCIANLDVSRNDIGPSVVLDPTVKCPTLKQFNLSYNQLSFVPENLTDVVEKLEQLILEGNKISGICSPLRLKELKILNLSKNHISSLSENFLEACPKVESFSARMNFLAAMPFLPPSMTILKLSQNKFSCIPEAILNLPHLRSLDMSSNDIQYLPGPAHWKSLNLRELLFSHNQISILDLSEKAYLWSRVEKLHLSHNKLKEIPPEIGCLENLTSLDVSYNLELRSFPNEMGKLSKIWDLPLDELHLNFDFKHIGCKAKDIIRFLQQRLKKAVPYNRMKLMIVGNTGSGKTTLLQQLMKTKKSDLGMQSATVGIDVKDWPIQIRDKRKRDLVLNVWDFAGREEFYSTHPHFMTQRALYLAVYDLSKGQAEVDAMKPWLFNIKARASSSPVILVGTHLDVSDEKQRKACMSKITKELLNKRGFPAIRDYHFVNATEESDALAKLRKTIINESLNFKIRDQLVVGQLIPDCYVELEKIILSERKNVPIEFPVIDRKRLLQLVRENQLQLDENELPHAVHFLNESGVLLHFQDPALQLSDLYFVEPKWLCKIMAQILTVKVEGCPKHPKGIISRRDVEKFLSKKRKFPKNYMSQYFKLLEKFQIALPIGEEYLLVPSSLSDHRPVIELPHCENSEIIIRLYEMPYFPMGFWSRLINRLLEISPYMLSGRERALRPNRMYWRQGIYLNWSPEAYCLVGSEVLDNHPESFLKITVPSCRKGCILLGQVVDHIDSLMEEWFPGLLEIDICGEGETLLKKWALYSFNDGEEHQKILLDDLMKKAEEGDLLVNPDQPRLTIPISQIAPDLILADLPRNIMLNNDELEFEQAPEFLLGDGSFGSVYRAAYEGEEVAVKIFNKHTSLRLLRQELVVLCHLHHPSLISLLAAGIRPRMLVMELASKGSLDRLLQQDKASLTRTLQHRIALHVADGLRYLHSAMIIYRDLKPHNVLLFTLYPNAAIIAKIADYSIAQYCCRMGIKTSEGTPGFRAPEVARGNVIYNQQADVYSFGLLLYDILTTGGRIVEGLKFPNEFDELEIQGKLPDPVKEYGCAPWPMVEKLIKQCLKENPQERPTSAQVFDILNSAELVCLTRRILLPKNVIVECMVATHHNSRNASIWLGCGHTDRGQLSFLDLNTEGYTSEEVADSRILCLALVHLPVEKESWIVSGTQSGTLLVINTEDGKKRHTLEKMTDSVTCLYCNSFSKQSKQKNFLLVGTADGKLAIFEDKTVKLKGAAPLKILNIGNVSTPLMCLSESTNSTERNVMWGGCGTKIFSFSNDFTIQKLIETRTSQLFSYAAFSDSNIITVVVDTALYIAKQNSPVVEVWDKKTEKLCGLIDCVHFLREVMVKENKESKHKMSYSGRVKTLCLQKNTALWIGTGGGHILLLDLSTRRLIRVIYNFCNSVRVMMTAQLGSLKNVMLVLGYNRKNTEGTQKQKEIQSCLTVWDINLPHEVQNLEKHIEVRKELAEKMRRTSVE
Description: In Vitro LRRK2 LabChip Assay (LRRK2 Ki). It counts as biochemical. The note with it: Table 5 compounds (formula I). On the procedure: In Vitro LRRK2 LabChip Assay
This assay was used to determine a compound's potency in inhibiting activity of LRRK2 by determining, Kiapp, IC50, or percent inhibition values. In a polypropylene plate, LRRK2, fluorescently-labeled peptide substrate, ATP and test compound were incubated together. Using a LabChip 3000 (Caliper Life Sciences), after the reaction the substrate was separated by capillary electrophoresis into two populations: phosphorylated and unphosphorylated. The relative amounts of each were quantitated by fluorescence intensity. LRRK2 Ki was determined according to the equation: Y=V0*(1−((x+Ki*(1+S/Km)+Et)/(2*Et)−(((x+Ki*(1+S/Km)+Et)^2−(4*Et*x))^0.5)/(2*Et))). Ki values in Table 4 and elsewhere herein are shown in μM.
Assay conditions and materials used were as follows:
LRRK2 Wild type in 5 mM MgCl2: 15 nM (Invitrogen lot #500607F)
Kinase reaction time: 2 hours
Wild type in 5 mM MgCl2: 80 μM
Solid Support: Black 50 μL volume polypropylene 384 well plate (MatriCal cat # MP101-1-PP)
Kinase: LRRK2 G2019S (Invitrogen cat #PV4882). • LRRK2 Wild type (Invitrogen cat #PV4874).
Substrate: 5FAM-[…]-CONH2
Non-binding plate: 384 well clear V-bottom polypropylene plates (Greiner cat #781280).
ATP: 10 mM ATP (Cell Signaling cat #9804).
Coating Reagent #3: Coating Reagent #3 (Caliper).
Complete Reaction Buffer: H2O/25 mM Tris, pH 8.0/5 mM MgCl2/2 mM DTT/0.01% Triton X-100.
Stop Solution: H2O/100 mM HEPES, pH 7.2/0.015% Brij-35/0.2% Coating Reagent #3/20 mM EDTA.
Separation Buffer: H2O/100 mM HEPES, pH 7.2/0.015% Brij-35/0.1% Coating Reagent #3/1:200 Coating Reagent #8/10 mM EDTA/5% DMSO.
Compound Plate Preparation:
For serial dilutions, 34.6 μl DMSO was added to columns 3-24. For the assay controls, 37.5 μl DMSO was added to columns 1 and 2 of rows A and P. a, d and 50 μl 25 μM G-028831 (Staurosporine) was added to columns 1 and 2, row B. For the samples: to start at 100 μM, 37.5 μl DMSO was to columns 1 and 2, then 12.5 μl 10 mM compound; to start at 10 μM, 78 μl DMSO was added to columns 1 & 2, then 2 μl 10 mM compound; and to start at 1 μM, 25 μM compound (2 μl 10 mM cmpd+798 μl DMSO) was added to empty columns 1 and 2. A Precision instrument was used to perform 1:3.16 serial dilutions (“PLK_BM_serial_halflog”).
ATP was diluted to 282.1 μM in Complete Kinase Buffer (final concentration was 130 μM).
Total and Blank Preparation:
In Complete Reaction Buffer, substrate was diluted to 4 μM. Equal volumes of Complete Reaction Buffer and 4 μM substrate were combined to obtain the blank. Equal volumes of Complete Reaction Buffer and 4 μM substrate were combined and to the combined solution was added 2× final LRRK2 concentration.
To a 50 μl polypropylene plate, 5 μl/well buffer/substrate was added by hand to Blank wells. A Biomek FX was used to start the kinase reaction (“PLK SAR 23 ATP”). The following were added to the appropriate wells:
5 μl/well compound/ATP in Assay Plate;
5 μl/well kinase/substrate in Assay Plate;
The plate was incubated for 2 hours in the dark. Biomek FX was used to stop the kinase reaction (“PLK Stop”), and 10 μl/well Stop solution was added to the Assay Plate. Results were read on the LabChip 3000.
The LabChip 3000 was run using the job “LRRK2 IC50” with the following job settings:
Downstream voltage: −500 V
Upstream voltage: −2350 V
Post sample buffer sip time: 75 seconds
Post dye buffer sip time: 75 seconds
Final delay time: 200 seconds
Regarding `CNc1nc(Nc2cc(F)c(C(=O)N3CCOCC3)cc2OCCF)ncc1C(F)(F)F` [Compound 48, [2-Fluoro-5-(2-fluoro-ethoxy)-4-(4-methylamino-5-trifluoromethyl-pyrimidin-2-ylamino)-phenyl]-morpholin-4-yl-methanone], affinity was put at a Ki of 3.48 nM.

`CCNc1nc(Nc2cc(F)c(C(=O)N3CCOCC3)cc2OCCF)ncc1C(F)(F)F` [Compound 49, [4-(4-Ethylamino-5-trifluoromethyl-pyrimidin-2-ylamino)-2-fluoro-5-(2-fluoro-ethoxy)-phenyl]-morpholin-4-yl-methanone] displayed an inhibition constant Ki of 2.02 nM. Compared with the last compound, the Ki is about 1.7-fold lower.

In turn, `COc1cc(C(=O)N2CCOCC2)c(F)cc1Nc1ncc(C(F)(F)F)c(OC)n1` [Compound 50, [2-Fluoro-5-methoxy-4-(4-methoxy-5-trifluoromethyl-pyrimidin-2-ylamino)-phenyl]-morpholin-4-yl-methanone] showed an inhibition constant Ki of 33.3 nM. The result for `O=C(c1ccc(Nc2ncc(C(F)(F)F)c(NC3CC3)n2)c(F)c1F)N1CCOCC1` [Compound 51, [4-(4-Cyclopropylamino-5-trifluoromethyl-pyrimidin-2-ylamino)-2,3-difluoro-phenyl]-morpholin-4-yl-methanone] reads 2.28 nM; that for `O=C(c1cc(F)c(Nc2ncc(C(F)(F)F)c(NC3CC3)n2)cc1F)N1CCOCC1` [Compound 52, [4-(4-Cyclopropylamino-5-trifluoromethyl-pyrimidin-2-ylamino)-2,5-difluoro-phenyl]-morpholin-4-yl-methanone], 3.35 nM. The figure for `CNc1nc(Nc2cc(Cl)c(C(=O)N3CCOCC3)cc2F)ncc1C(F)(F)F` [Compound 53, [2-Chloro-5-fluoro-4-(4-methylamino-5-trifluoromethyl-pyrimidin-2-ylamino)-phenyl]-morpholin-4-yl-methanone] is 19.6 nM. As to `CCNc1nc(Nc2ccc(C(=O)N3CC[C@H](F)C3)cc2OC)ncc1C#N` [Compound 54, 4-Ethylamino-2-[4-((S)-3-fluoro-pyrrolidine-1-carbonyl)-2-methoxy-phenylamino]-pyrimidine-5-carbonitrile], the Ki was found to be 82.5 nM. The result for `CNc1nc(Nc2cc(OC)c(C(=O)N(C)c3cnn(C)c3)cc2Cl)ncc1C(F)(F)F` [Compound 55, 5-Chloro-2-methoxy-N-methyl-4-(4-methylamino-5-trifluoromethyl-pyrimidin-2-ylamino)-N-(1-methyl-1H-pyrazol-4-yl)-benzamide] reads 14.5 nM; that for `CCNc1nc(Nc2cc(OC)c(C(=O)N3CCC(F)(F)C3)cc2OC)ncc1C(F)(F)F` [Compound 56, (3,3-Difluoro-pyrrolidin-1-yl)-[4-(4-ethylamino-5-trifluoromethyl-pyrimidin-2-ylamino)-2,5-dimethoxy-phenyl]-methanone], 1.13 nM.

`COc1nc(Nc2ccc(C(=O)N3CCOCC3)cc2OCCF)ncc1Cl` [Compound 57, [4-(5-Chloro-4-methoxy-pyrimidin-2-ylamino)-3-(2-fluoro-ethoxy)-phenyl]-morpholin-4-yl-methanone]: affinity was put at a Ki of 14.5 nM. This Ki lies about 13-fold higher than the previous one. The result for `CNc1nc(Nc2cc(OC)c(C(=O)N3CCOCC3)cc2C)ncc1C(F)(F)F` [Compound 58, [2-Methoxy-5-methyl-4-(4-methylamino-5-trifluoromethyl-pyrimidin-2-ylamino)-phenyl]-morpholin-4-yl-methanone] reads 5.63 nM; that for `CCNc1nc(Nc2cc(Cl)c(C(=O)N3CCOCC3)cc2F)ncc1C(F)(F)F` [Compound 59, [2-Chloro-4-(4-ethylamino-5-trifluoromethyl-pyrimidin-2-ylamino)-5-fluoro-phenyl]-morpholin-4-yl-methanone], 4.31 nM. For the compound `CNc1nc(Nc2ccc(C(=O)N3CCOCC3)c(F)c2Cl)ncc1C(F)(F)F` [Compound 60, [3-Chloro-2-fluoro-4-(4-methylamino-5-trifluoromethyl-pyrimidin-2-ylamino)-phenyl]-morpholin-4-yl-methanone], the Ki came to 14.2 nM.

On to `CCNc1nc(Nc2cc(OC)c(C(=O)N3CCC(F)(F)C3)cc2OCCF)ncc1C(F)(F)F` [Compound 61, (3,3-Difluoro-pyrrolidin-1-yl)-[4-(4-ethylamino-5-trifluoromethyl-pyrimidin-2-ylamino)-5-(2-fluoro-ethoxy)-2-methoxy-phenyl]-methanone], for which the Ki amounted to 1.03 nM.

For `CCNc1nc(Nc2cc(F)c(C(=O)N3CCOCC3)c(F)c2OC)ncc1C(F)(F)F` [Compound 62, [4-(4-Ethylamino-5-trifluoromethyl-pyrimidin-2-ylamino)-2,6-difluoro-3-methoxy-phenyl]-morpholin-4-yl-methanone], the Ki worked out at 9.08 nM. As for `CNc1nc(Nc2cc(F)c(C(=O)N3CCOCC3)c(F)c2OC)ncc1C(F)(F)F` [Compound 63, [2,6-Difluoro-3-methoxy-4-(4-methylamino-5-trifluoromethyl-pyrimidin-2-ylamino)-phenyl]-morpholin-4-yl-methanone], the inhibitory constant (Ki) was 24.3 nM. The result for `CCOc1nc(Nc2cc(F)c(C(=O)N3CCOCC3)cc2OC)ncc1C(F)(F)F` [Compound 64, [4-(4-Ethoxy-5-trifluoromethyl-pyrimidin-2-ylamino)-2-fluoro-5-methoxy-phenyl]-morpholin-4-yl-methanone] reads 16.9 nM. `CNc1nc(Nc2cc(OC)c(C(=O)N3CCOCC3)cc2OC)ncc1C(F)(F)F` [Compound 65, [2,5-Dimethoxy-4-(4-methylamino-5-trifluoromethyl-pyrimidin-2-ylamino)-phenyl]-morpholin-4-yl-methanone] yielded a Ki of 1.09 nM. Consider `CCNc1nc(Nc2cc(OC)c(C(=O)N3CCC(F)(F)C3)cc2OCF)ncc1C(F)(F)F` [Compound 66, (3,3-Difluoro-pyrrolidin-1-yl)-[4-(4-ethylamino-5-trifluoromethyl-pyrimidin-2-ylamino)-5-fluoromethoxy-2-methoxy-phenyl]-methanone], for which the Ki stood at 0.388 nM.

`CNc1nc(Nc2cc(C(F)(F)F)c(C(=O)N3CCOCC3)cc2OC)ncc1C(F)(F)F` [Compound 67, [5-Methoxy-4-(4-methylamino-5-trifluoromethyl-pyrimidin-2-ylamino)-2-trifluoromethyl-phenyl]-morpholin-4-yl-methanone] came in with an inhibition constant Ki of 2.53 nM. The compound `CNc1nc(Nc2cc(C(F)(F)F)c(C(=O)N3CCOCC3)cc2OC)ncc1Cl` [Compound 68, [4-(5-Chloro-4-methylamino-pyrimidin-2-ylamino)-5-methoxy-2-trifluoromethyl-phenyl]-morpholin-4-yl-methanone] yielded a Ki of 4.73 nM. This Ki is about 1.9-fold higher than that of the compound before. `CNc1nc(Nc2cc(F)c(C(=O)N3CCOCC3)cc2Cl)ncc1C(F)(F)F` [Compound 69, [5-Chloro-2-fluoro-4-(4-methylamino-5-trifluoromethyl-pyrimidin-2-ylamino)-phenyl]-morpholin-4-yl-methanone] came in with a Ki of 9.31 nM. Consider `O=C(c1cc(OCCF)c(Nc2ncc(C(F)(F)F)c(NC3CC3)n2)cc1F)N1CCOCC1` [Compound 70, [4-(4-Cyclopropylamino-5-trifluoromethyl-pyrimidin-2-ylamino)-2-fluoro-5-(2-fluoro-ethoxy)-phenyl]-morpholin-4-yl-methanone], for which the Ki was determined as 0.658 nM. Take `CCNc1nc(Nc2cc(C)c(C(=O)N3CCOCC3)cc2Cl)ncc1C(F)(F)F` [Compound 71, [5-Chloro-4-(4-ethylamino-5-trifluoromethyl-pyrimidin-2-ylamino)-2-methyl-phenyl]-morpholin-4-yl-methanone]: the inhibition constant (Ki) turned out to be 1.08 nM.
